What was measured:
Format in all cases: cell-based
Details in all cases: with inhibitor at 4 μg/mL
E. coli 1924 = assay: Broth microdilution MIC (strain enzymes: TEM-12)
E. coli 2150 = assay: Broth microdilution MIC (strain enzymes: SHV-3, TEM-1)
E. coli ESBL 2 = assay: Broth microdilution MIC (strain enzymes: TEM-1)
E. coli ESBL 5 = assay: Broth microdilution MIC (strain enzymes: CTX-M15, TEM-1)
E. coli SI-NO36 = assay: Broth microdilution MIC (strain enzymes: SHV-11, TEM-1)
E. coli SI-V502 = assay: Broth microdilution MIC (strain enzymes: TEM-29, CTX-M15)
K. oxytoca 169219 = assay: Broth microdilution MIC (strain enzymes: TEM-1, CTXM-15)
K. oxytoca 176877 = assay: Broth microdilution MIC (strain enzymes: SHV-105)
K. oxytoca 496 #2 = assay: Broth microdilution MIC (strain enzymes: SHV-105, TEM-1)
K. pneumoniae 3151 = assay: Broth microdilution MIC (strain enzymes: SHV-12, TEM-1)
K. pneumoniae 115468 = assay: Broth microdilution MIC (strain enzymes: TEM-1)
K. pneumoniae 304487 = assay: Broth microdilution MIC (strain enzymes: SHV-12,TEM-1)
K. pneumoniae 319478 = assay: Broth microdilution MIC (strain enzymes: SHV-12, CTX-M3 and TEM-1)
K. pneumoniae ESBL 8 #1 = assay: Broth microdilution MIC (strain enzymes: TEM-1, SHV-12)
K. pneumoniae ESBL 8 #2 = assay: Broth microdilution MIC (strain enzymes: SHV-12, TEM-1)
K. pneumoniae ESBL 7 #2 = assay: Broth microdilution MIC (strain enzymes: SHV-12, CTX-M15, TEM-1)
K. pneumoniae KP 3 = assay: Broth microdilution MIC (strain enzymes: SHV-1, TEM-1)
K. pneumoniae KP 4 = assay: Broth microdilution MIC (strain enzymes: SHV-2a, SHV-5, TEM-1)
K. pneumoniae KPN 508 = assay: Broth microdilution MIC (strain enzymes: SHV-7, TEM-1)
K. pneumoniae BAA 1705 = assay: Broth microdilution MIC (strain KPC-producing)
[1] = system: panel of ESBL-producing Enterobacteriaceae (40 strains); assay: Broth microdilution MIC50/MIC90 summary over the panel

O=C(O)[C@H]1/C(=C/CO)O[C@@H]2CC(=O)N21 [Clavulanic acid, clavulanic acid, reference compound]
4 µg/mL: MIC of ceftibuten (CTB) (E. coli ESBL 2) | Cefpodoxime MIC90 [1]
8 µg/mL: MIC of ceftibuten (CTB) (K. pneumoniae BAA 1705)
0.125 µg/mL: MIC of cefixime (CFM) (K. oxytoca 169219) | MIC of ceftibuten (CTB) (K. oxytoca 176877) | MIC of ceftibuten (CTB) (K. oxytoca 496 #2) | MIC of cefalexin (LEX) (K. pneumoniae 3151) | MIC of cefdinir (CDR) (K. pneumoniae 3151) | MIC of cefixime (CFM) (K. pneumoniae 3151) | MIC of cefixime (CFM) (K. pneumoniae 115468) | MIC of ceftibuten (CTB) (K. pneumoniae 304487) | MIC of cefalexin (LEX) (K. pneumoniae ESBL 8 #2) | MIC of cefdinir (CDR) (K. pneumoniae ESBL 8 #2) | MIC of ceftibuten (CTB) (K. pneumoniae KP 3) | MIC of cefalexin (LEX) (K. pneumoniae KP 4) | MIC of cefdinir (CDR) (K. pneumoniae KP 4) | MIC of cefixime (CFM) (K. pneumoniae KP 4) | MIC of cefalexin (LEX) (K. pneumoniae KPN 508) | MIC of cefdinir (CDR) (K. pneumoniae KPN 508)
2 µg/mL: MIC of cefalexin (LEX) (K. oxytoca 176877) | MIC of cefdinir (CDR) (K. oxytoca 176877) | MIC of ceftibuten (CTB) (K. pneumoniae KP 4) | Cefdinir MIC90 [1] | Cefixime MIC90 [1] | Ceftibuten MIC90 [1]
0.03 µg/mL: MIC of cefixime (CFM) (K. oxytoca 496 #2) | MIC of ceftibuten (CTB) (K. pneumoniae ESBL 8 #1) | MIC of cefixime (CFM) (K. pneumoniae ESBL 8 #2)
16 µg/mL: Cephalexin MIC50 [1]
0.5 µg/mL: MIC of cefalexin (LEX) (E. coli 1924) | MIC of cefdinir (CDR) (E. coli 1924) | MIC of ceftibuten (CTB) (E. coli 1924) | MIC of cefalexin (LEX) (E. coli 2150) | MIC of cefdinir (CDR) (E. coli 2150) | MIC of ceftibuten (CTB) (E. coli 2150) | MIC of ceftibuten (CTB) (E. coli ESBL 5) | MIC of cefixime (CFM) (E. coli SI-NO36) | MIC of ceftibuten (CTB) (E. coli SI-V502) | MIC of cefalexin (LEX) (K. pneumoniae 304487) | MIC of cefdinir (CDR) (K. pneumoniae 304487) | MIC of cefalexin (LEX) (K. pneumoniae 319478) | MIC of cefdinir (CDR) (K. pneumoniae 319478) | MIC of cefixime (CFM) (K. pneumoniae 319478) | MIC of cefixime (CFM) (K. pneumoniae KP 3) | Cefdinir MIC50 [1] | Cefixime MIC50 [1] | Cefpodoxime MIC50 [1]
1 µg/mL: MIC of cefixime (CFM) (E. coli 1924) | MIC of cefixime (CFM) (E. coli 2150) | MIC of cefalexin (LEX) (E. coli ESBL 5) | MIC of cefdinir (CDR) (E. coli ESBL 5) | MIC of cefixime (CFM) (E. coli ESBL 5) | MIC of cefalexin (LEX) (E. coli SI-V502) | MIC of cefdinir (CDR) (E. coli SI-V502) | MIC of cefixime (CFM) (E. coli SI-V502) | MIC of cefalexin (LEX) (K. pneumoniae KP 3) | MIC of cefdinir (CDR) (K. pneumoniae KP 3)
0.06 µg/mL: MIC of cefalexin (LEX) (K. oxytoca 496 #2) | MIC of cefdinir (CDR) (K. oxytoca 496 #2) | MIC of ceftibuten (CTB) (K. pneumoniae 3151) | MIC of cefalexin (LEX) (K. pneumoniae 115468) | MIC of cefdinir (CDR) (K. pneumoniae 115468) | MIC of ceftibuten (CTB) (K. pneumoniae 319478) | MIC of cefalexin (LEX) (K. pneumoniae ESBL 8 #1) | MIC of cefdinir (CDR) (K. pneumoniae ESBL 8 #1) | MIC of cefixime (CFM) (K. pneumoniae ESBL 8 #1) | MIC of ceftibuten (CTB) (K. pneumoniae ESBL 8 #2) | MIC of ceftibuten (CTB) (K. pneumoniae KPN 508)
0.25 µg/mL: MIC of cefalexin (LEX) (E. coli SI-NO36) | MIC of cefdinir (CDR) (E. coli SI-NO36) | MIC of ceftibuten (CTB) (E. coli SI-NO36) | MIC of cefalexin (LEX) (K. oxytoca 169219) | MIC of cefdinir (CDR) (K. oxytoca 169219) | MIC of cefixime (CFM) (K. oxytoca 176877) | MIC of ceftibuten (CTB) (K. pneumoniae 115468) | MIC of cefixime (CFM) (K. pneumoniae 304487) | MIC of cefixime (CFM) (K. pneumoniae KPN 508) | Ceftibuten MIC50 [1]
>32 µg/mL: MIC of cefalexin (LEX) (E. coli ESBL 2) | MIC of cefdinir (CDR) (E. coli ESBL 2) | MIC of cefalexin (LEX) (K. pneumoniae ESBL 7 #2) | MIC of cefdinir (CDR) (K. pneumoniae ESBL 7 #2) | MIC of cefixime (CFM) (K. pneumoniae ESBL 7 #2) | MIC of ceftibuten (CTB) (K. pneumoniae ESBL 7 #2) | MIC of cefalexin (LEX) (K. pneumoniae BAA 1705) | MIC of cefdinir (CDR) (K. pneumoniae BAA 1705) | MIC of cefixime (CFM) (K. pneumoniae BAA 1705)
0.0149 µg/mL: MIC of ceftibuten (CTB) (K. oxytoca 169219)
32 µg/mL: MIC of cefixime (CFM) (E. coli ESBL 2) | Cephalexin MIC90 [1]
